Target: T1, slc26a3 (Mus musculus, UniProt Q9WVC8)
T1 construct: host or cells: Fischer rat thyroid (FRT) cells expressing YFP, clonal line FRT-YFP-slc26a3
T1 sequence (Q9WVC8 1-757): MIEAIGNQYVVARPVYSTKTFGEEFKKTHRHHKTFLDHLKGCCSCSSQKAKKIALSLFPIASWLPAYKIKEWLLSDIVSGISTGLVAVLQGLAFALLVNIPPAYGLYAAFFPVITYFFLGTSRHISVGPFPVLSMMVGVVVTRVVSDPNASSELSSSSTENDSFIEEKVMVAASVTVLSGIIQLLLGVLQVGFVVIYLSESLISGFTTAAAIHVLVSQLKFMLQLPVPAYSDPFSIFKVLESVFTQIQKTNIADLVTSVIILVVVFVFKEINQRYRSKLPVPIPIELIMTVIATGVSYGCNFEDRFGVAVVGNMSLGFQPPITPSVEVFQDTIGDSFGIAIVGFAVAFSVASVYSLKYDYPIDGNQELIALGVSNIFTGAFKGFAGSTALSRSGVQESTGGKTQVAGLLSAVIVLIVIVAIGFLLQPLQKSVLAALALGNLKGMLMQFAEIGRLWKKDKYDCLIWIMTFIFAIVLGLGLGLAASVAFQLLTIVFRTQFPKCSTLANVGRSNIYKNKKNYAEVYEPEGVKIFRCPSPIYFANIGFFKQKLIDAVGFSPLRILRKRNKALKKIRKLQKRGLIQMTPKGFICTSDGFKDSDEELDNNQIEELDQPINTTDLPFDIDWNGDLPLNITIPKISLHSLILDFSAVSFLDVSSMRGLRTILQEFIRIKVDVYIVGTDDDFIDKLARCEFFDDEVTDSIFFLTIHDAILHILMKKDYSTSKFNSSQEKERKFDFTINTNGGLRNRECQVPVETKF
Experiment: slc26a3-mediated Cl-/HCO3- exchange, BCECF cytoplasmic pH in slc26a3-expressing FRT cells
Type: cell-based, murine
Settings: increase in cytoplasmic pH, read-out: IC50 for inhibition of slc26a3-mediated Cl-/HCO3- exchange
Method: Concentration-dependence measurements for inhibition of slc26a3-mediated exchange of Cl^- and HCO3^-, the physiologically relevant activity of slc26a3, was measured using slc26a3-expressing FRT cells labeled with BCECF as a cytoplasmic pH sensor. Labeled cells were initially incubated in a Cl^--containing HCO3^- buffered solution, and HCO3^- influx / Cl^- efflux with cytoplasmic alkalinization was produced by addition of a gluconate-containing HCO3^- buffered solution. […] Concentration-dependence measurements for inhibition of slc26a3-mediated Cl^-/SCN^- exchange gave an IC50 of ~0.3 µM (FIG. 4B).
YFP-based assays of CFTR, pendrin and TMEM16A were as described. HEK cells transfected to express YFP and SLC26A3, slc26a6 or slc26a9 were functionally assayed using a Cl^-/I^- exchange protocol. Assays of Cl^-/HCO3^- exchange were done using BCECF as an intracellular pH indicator as described for pendrin. Short-circuit current (ISC) measurements in well-differentiated HBE cell cultures were done using techniques known in the art.

Cc1c(CC(=O)O)c(=O)oc2c(C)c(OCc3cccc(Br)c3)ccc12 [Compound A1]
IC50: ~100 nM

From patent publication US20230339878A1, “SLC26A3 INHIBITORS AND USE THEREOF” (THE REGENTS OF THE UNIVERSITY OF CALIFORNIA, priority 2018, published 2023)
